system: HeLa cells; assay: Proliferation assay, crystal violet staining; settings: Homo sapiens, 96 h, read-out: Inhibition of HeLa cell proliferation, HeLa cells, 4 days incubation
Method: After 24 hours, the cells of one plate (zero plate) were dyed with crystal violet (see below), whereas the medium of the other plates was replaced with fresh culture medium (200 μl) to which the test substances were added in various concentrations (0 μM, and also in the range of 0.001-10 μM; the final concentration of the solvent dimethyl sulphoxide was 0.1 or 0.5%). The cells were incubated for 4 days in the presence of the test substances. […] After washing the fixed cells three times with water, the plates were dried at room temperature. The cells were stained by adding 100 μl/measurement point of a 0.1% strength crystal violet solution (pH adjusted to pH 3 by adding acetic acid). After washing the cells three times with water, the plates were dried at room temperature. The dye was dissolved by adding 100 μl/measurement point of a 10% strength acetic acid solution. […] The percentage change in cell growth was calculated by normalizing the measured values to the absorbance values of the zero plate (=0%) and the absorbance of the untreated (0 W) cells (=100%). The IC50 values were determined by means of a four parameter fit.

SMILES	IC50 [nM]
C[C@@H]1COCCN1c1cc(-c2ccncc2F)c2ccnc(-c3ccn[nH]3)c2n1 [Example 230, 4-(3-fluoropyridin-4-yl)-2-[(3R)-3-methylmorpholin-4-yl]-8-(1H-pyrazol-5-yl)-1,7-naphthyridine]	380
Cc1cc(-c2cc(N3CCOC[C@H]3C)nc3c(-c4ccn[nH]4)nccc23)cnc1C [Example 232, 4-(5,6-dimethylpyridin-3-yl)-2-[(3R)-3-methylmorpholin-4-yl]-8-(1H-pyrazol-5-yl)-1,7-naphthyridine]	341
Cc1ncc(-c2cc(N3CCOC[C@H]3C)nc3c(-c4ccn[nH]4)nccc23)cc1F [Example 233, 4-(5-fluoro-6-methylpyridin-3-yl)-2-[(3R)-3-methylmorpholin-4-yl]-8-(1H-pyrazol-5-yl)-1,7-naphthyridine]	180
Cc1cc(-c2cc(N3CCOC[C@H]3C)nc3c(-c4ccn[nH]4)nccc23)cs1 [Example 234, 2-[(3R)-3-methylmorpholin-4-yl]-4-(5-methylthiophen-3-yl)-8-(1H-pyrazol-5-yl)-1,7-naphthyridine]	1210
COc1ccsc1-c1cc(N2CCOC[C@H]2C)nc2c(-c3ccn[nH]3)nccc12 [Example 235, 4-(3-methoxythiophen-2-yl)-2-[(3R)-3-methylmorpholin-4-yl]-8-(1H-pyrazol-5-yl)-1,7-naphthyridine]	950
C[C@@H]1COCCN1c1cc(-c2ccsc2Cl)c2ccnc(-c3ccn[nH]3)c2n1 [Example 236, 4-(2-chlorothiophen-3-yl)-2-[(3R)-3-methylmorpholin-4-yl]-8-(1H-pyrazol-5-yl)-1,7-naphthyridine]	792
C[C@@H]1COCCN1c1cc(-c2cncc3ccccc23)c2ccnc(-c3ccn[nH]3)c2n1 [Example 237, 4-(isoquinolin-4-yl)-2-[(3R)-3-methylmorpholin-4-yl]-8-(1H-pyrazol-5-yl)-1,7-naphthyridine]	528
C[C@@H]1COCCN1c1cc(-c2ccc(Cl)s2)c2ccnc(-c3ccn[nH]3)c2n1 [Example 238, 4-(5-chlorothiophen-2-yl)-2-[(3R)-3-methylmorpholin-4-yl]-8-(1H-pyrazol-5-yl)-1,7-naphthyridine]	1180
Cc1csc(-c2cc(N3CCOC[C@H]3C)nc3c(-c4ccn[nH]4)nccc23)c1 [Example 239, 2-[(3R)-3-methylmorpholin-4-yl]-4-(4-methylthiophen-2-yl)-8-(1H-pyrazol-5-yl)-1,7-naphthyridine]	1130
C[C@@H]1COCCN1c1cc(C2CCSCC2)c2ccnc(-c3ccn[nH]3)c2n1 [Example 241, 2-[(3R)-3-methylmorpholin-4-yl]-8-(1H-pyrazol-5-yl)-4-(tetrahydro-2H-thiopyran-4-yl)-1,7-naphthyridine]	171
C[C@@H]1COCCN1c1cc(C2=CCCN(C)C2)c2ccnc(-c3ccn[nH]3)c2n1 [Example 242, 2-[(3R)-3-methylmorpholin-4-yl]-4-(1-methyl-1,2,5,6-tetrahydropyridin-3-yl)-8-(1H-pyrazol-5-yl)-1,7-naphthyridine]	811
C[C@@H]1COCCN1c1cc(C2=CCN(C)CC2)c2ccnc(-c3ccn[nH]3)c2n1 [Example 243, 2-[(3R)-3-methylmorpholin-4-yl]-4-(1-methyl-1,2,3,6-tetrahydropyridin-4-yl)-8-(1H-pyrazol-5-yl)-1,7-naphthyridine]	360
C[C@@H]1COCCN1c1cc(C2=CCNCC2)c2ccnc(-c3ccn[nH]3)c2n1 [Example 245, 2-[(3R)-3-methylmorpholin-4-yl]-8-(1H-pyrazol-5-yl)-4-(1,2,3,6-tetrahydropyridin-4-yl)-1,7-naphthyridine]	343
C[C@@H]1COCCN1c1cc(-c2ccn(C3CCOCC3)n2)c2ccnc(-c3ccn[nH]3)c2n1 [Example 246, 2-[(3R)-3-methylmorpholin-4-yl]-8-(1H-pyrazol-5-yl)-4-[1-(tetrahydro-2H-pyran-4-yl)-1H-pyrazol-3-yl]-1,7-naphthyridine]	2840
C[C@@H]1COCCN1c1cc(-c2cnc(F)cc2F)c2ccnc(-c3ccn[nH]3)c2n1 [Example 247, 4-(4,6-difluoropyridin-3-yl)-2-[(3R)-3-methylmorpholin-4-yl]-8-(1H-pyrazol-5-yl)-1,7-naphthyridine]	228
C[C@@H]1COCCN1c1cc(-c2cnn(C)c2)c2ccnc(-c3ccn[nH]3)c2n1 [Example 248, 2-[(3R)-3-methylmorpholin-4-yl]-4-(1-methyl-1H-pyrazol-4-yl)-8-(1H-pyrazol-5-yl)-1,7-naphthyridine]	451
Cc1nn(C)cc1-c1cc(N2CCOC[C@H]2C)nc2c(-c3ccn[nH]3)nccc12 [Example 249, 4-(1,3-dimethyl-1H-pyrazol-4-yl)-2-[(3R)-3-methylmorpholin-4-yl]-8-(1H-pyrazol-5-yl)-1,7-naphthyridine]	409
Cc1c(-c2cc(N3CCOC[C@H]3C)nc3c(-c4ccn[nH]4)nccc23)cnn1C [Example 250, 4-(1,5-dimethyl-1H-pyrazol-4-yl)-2-[(3R)-3-methylmorpholin-4-yl]-8-(1H-pyrazol-5-yl)-1,7-naphthyridine]	116
C[C@@H]1COCCN1c1cc(C2CCNCC2)c2ccnc(-c3ccn[nH]3)c2n1 [Example 251, 2-[(3R)-3-methylmorpholin-4-yl]-4-(piperidin-4-yl)-8-(1H-pyrazol-5-yl)-1,7-naphthyridine]	800

SMILES	IC50 [nM]
C[C@@H]1COCCN1c1cc(-c2c[nH]nc2C(F)(F)F)c2ccnc(-c3ccn[nH]3)c2n1 [Example 252, 2-[(3R)-3-methylmorpholin-4-yl]-8-(1H-pyrazol-5-yl)-4-[3-(trifluoromethyl)-1H-pyrazol-4-yl]-1,7-naphthyridine]	222
C[C@@H]1COCCN1c1cc(-c2cnn(C3CCC3)c2)c2ccnc(-c3ccn[nH]3)c2n1 [Example 253, 4-(1-cyclobutyl-1H-pyrazol-4-yl)-2-[(3R)-3-methylmorpholin-4-yl]-8-(1H-pyrazol-5-yl)-1,7-naphthyridine]	558
C[C@@H]1COCCN1c1cc(-c2cnn(C3CC3)c2)c2ccnc(-c3ccn[nH]3)c2n1 [Example 254, 4-(1-cyclopropyl-1H-pyrazol-4-yl)-2-[(3R)-3-methylmorpholin-4-yl]-8-(1H-pyrazol-5-yl)-1,7-naphthyridine]	312
CC(C)n1cc(-c2cc(N3CCOC[C@H]3C)nc3c(-c4ccn[nH]4)nccc23)cn1 [Example 255, 2-[(3R)-3-methylmorpholin-4-yl]-4-[1-(propan-2-yl)-1H-pyrazol-4-yl]-8-(1H-pyrazol-5-yl)-1,7-naphthyridine]	458
Cc1nn(C)c(C)c1-c1cc(N2CCOC[C@H]2C)nc2c(-c3ccn[nH]3)nccc12 [Example 258, 2-[(3R)-3-methylmorpholin-4-yl]-8-(1H-pyrazol-5-yl)-4-(1,3,5-trimethyl-1H-pyrazol-4-yl)-1,7-naphthyridine]	263
C[C@@H]1COCCN1c1cc(-c2cn(C)nc2C(F)(F)F)c2ccnc(-c3ccn[nH]3)c2n1 [Example 259, 2-[(3R)-3-methylmorpholin-4-yl]-4-[1-methyl-3-(trifluoromethyl)-1H-pyrazol-4-yl]-8-(1H-pyrazol-5-yl)-1,7-naphthyridine]	497
C[C@@H]1COCCN1c1cc(-c2cnn(CCO)c2)c2ccnc(-c3ccn[nH]3)c2n1 [Example 260]	485
CCn1cc(-c2cc(N3CCOC[C@H]3C)nc3c(-c4ccn[nH]4)nccc23)cn1 [Example 261, 4-(1-ethyl-1H-pyrazol-4-yl)-2-[(3R)-3-methylmorpholin-4-yl]-8-(1H-pyrazol-5-yl)-1,7-naphthyridine]	420
C[C@@H]1COCCN1c1cc(-c2ccn(C)c2)c2ccnc(-c3ccn[nH]3)c2n1 [Example 262, 2-[(3R)-3-methylmorpholin-4-yl]-4-(1-methyl-1H-pyrrol-3-yl)-8-(1H-pyrazol-5-yl)-1,7-naphthyridine]	471
CC(C)n1ccc(-c2cc(N3CCOC[C@H]3C)nc3c(-c4ccn[nH]4)nccc23)n1 [Example 263, 2-[(3R)-3-methylmorpholin-4-yl]-4-[1-(propan-2-yl)-1H-pyrazol-3-yl]-8-(1H-pyrazol-5-yl)-1,7-naphthyridine]	332
Cc1cc(-c2cc(N3CCOC[C@H]3C)nc3c(-c4ccn[nH]4)nccc23)c(C)n1C [Example 264, 2-[(3R)-3-methylmorpholin-4-yl]-8-(1H-pyrazol-5-yl)-4-(1,2,5-trimethyl-1H-pyrrol-3-yl)-1,7-naphthyridine]	198
Cc1n[nH]cc1-c1cc(N2CCOC[C@H]2C)nc2c(-c3ccn[nH]3)nccc12 [Example 266, 2-[(3R)-3-methylmorpholin-4-yl]-4-(3-methyl-1H-pyrazol-4-yl)-8-(1H-pyrazol-5-yl)-1,7-naphthyridine]	154
C[C@@H]1COCCN1c1cc(N)c2ccnc(-c3ccn[nH]3)c2n1 [Example 267, 2-[(3R)-3-methylmorpholin-4-yl]-8-(1H-pyrazol-5-yl)-1,7-naphthyridin-4-amine]	2970
CC(C)Cn1cc(-c2cc(N3CCOC[C@H]3C)nc3c(-c4ccn[nH]4)nccc23)cn1 [Example 268, 2-[(3R)-3-methylmorpholin-4-yl]-4-[1-(2-methylpropyl)-1H-pyrazol-4-yl]-8-(1H-pyrazol-5-yl)-1,7-naphthyridine]	415
C[C@@H]1COCCN1c1cc(-c2cn[nH]c2)c2ccnc(-c3ccn[nH]3)c2n1 [Example 269, 2-[(3R)-3-methylmorpholin-4-yl]-4-(1H-pyrazol-4-yl)-8-(1H-pyrazol-5-yl)-1,7-naphthyridine]	405
C[C@@H]1COCCN1c1cc(-c2ncco2)c2ccnc(-c3ccn[nH]3)c2n1 [Example 270, 2-[(3R)-3-methylmorpholin-4-yl]-4-(1,3-oxazol-2-yl)-8-(1H-pyrazol-5-yl)-1,7-naphthyridine]	565
Cc1nn(C)cc1-c1cc(N2CCOCC2)nc2c(-c3ccn[nH]3)nccc12 [Example 271, 4-(1,3-dimethyl-1H-pyrazol-4-yl)-2-(morpholin-4-yl)-8-(1H-pyrazol-5-yl)-1,7-naphthyridine]	1330
Cc1c(-c2cc(N3CCOCC3)nc3c(-c4ccn[nH]4)nccc23)cnn1C [Example 272, 4-(1,5-dimethyl-1H-pyrazol-4-yl)-2-(morpholin-4-yl)-8-(1H-pyrazol-5-yl)-1,7-naphthyridine]	648

— US10772893B2, “2-(morpholin-4-yl)-1,7-naphthyridines” (BAYER PHARMA AKTIENGESELLSCHAFT, priority 2014, dated 2020)
